In ChEMBL document CHEMBL1201862, “PubChem BioAssay data set” (2004):
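Step 1: Grow cells in 96-well plates. Step 2: Expose to compound for 48 hours at 5 concentrations. Step 3: Interpolate endpoints linearly; if unreached, use highest concentration. At the GI50, growth is halved.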 Activity calls are given as the source filed them. No stated cut-off is given here; in the data, active = GI50 up to about 1.1 µM and inactive = higher.

Assays:
Assay in all cases: NCI tumour cell line growth inhibition, 48 h
SNB-19 = system: SNB-19
NCI-H226 = system: NCI-H226
SF-539 = system: SF-539
SN12C = system: SN12C
RXF 393 = system: RXF 393
OVCAR-5 = system: OVCAR-5
UACC-257 = system: UACC-257
HCC 2998 = system: HCC 2998
LOX IMVI = system: LOX IMVI
SR = system: SR
NCI-H460 = system: NCI-H460
HCT-116 = system: HCT-116
Malme-3M = system: Malme-3M
DU-145 = system: DU-145
UO-31 = system: UO-31
SNB-75 = system: SNB-75
OVCAR-4 = system: OVCAR-4
SF-295 = system: SF-295
A498 = system: A498
HOP-92 = system: HOP-92
SK-OV-3 = system: SK-OV-3
SF-268 = system: SF-268
U-251 = system: U-251
MOLT-4 = system: MOLT-4
Hs-578T = system: Hs-578T
K562 = system: K562
HOP-62 = system: HOP-62
MDA-MB-231 = system: MDA-MB-231
OVCAR-8 = system: OVCAR-8
ACHN = system: ACHN
M14 = system: M14
EKVX = system: EKVX
MDA-MB-435 = system: MDA-MB-435
SK-MEL-5 = system: SK-MEL-5
NCI/ADR-RES = system: NCI/ADR-RES
NCI-H23 = system: NCI-H23
SW-620 = system: SW-620
CCRF-CEM = system: CCRF-CEM
KM12 = system: KM12
COLO 205 = system: COLO 205
A549 = system: A549
786-0 = system: 786-0
TK-10 = system: TK-10
SK-MEL-28 = system: SK-MEL-28
HT-29 = system: HT-29
HL-60 = system: HL-60
HCT-15 = system: HCT-15
MCF7 = system: MCF7
RPMI-8226 = system: RPMI-8226

**Q.** Which GI50 (SNB-19) does the source give for `CC(=O)NC(NCCN)(c1ccccc1)c1ccccc1` here?
**A.** > 100 µM (inactive)

**Q.** And the GI50 (NCI-H226)?
**A.** > 100 µM (inactive)

**Q.** What about the GI50 (SF-539) of the same compound?
**A.** > 100 µM (inactive)

**Q.** And the GI50 (SN12C)?
**A.** > 100 µM (inactive)

**Q.** And the GI50 (RXF 393)?
**A.** > 100 µM (inactive)

**Q.** What about the GI50 (OVCAR-5) of the same compound?
**A.** 67.9 µM (inactive)

**Q.** What about the GI50 (UACC-257) of the same compound?
**A.** > 100 µM (inactive)

**Q.** What about the GI50 (HCC 2998) of the same compound?
**A.** > 100 µM (inactive)

**Q.** What about the GI50 (LOX IMVI) of the same compound?
**A.** > 100 µM (inactive)

**Q.** What about the GI50 (SR) of the same compound?
**A.** > 100 µM (inactive)

**Q.** What about the GI50 (NCI-H460) of the same compound?
**A.** > 100 µM (inactive)

**Q.** What about the GI50 (HCT-116) of the same compound?
**A.** > 100 µM (inactive)

**Q.** What about the GI50 (Malme-3M) of the same compound?
**A.** > 100 µM (inactive)

**Q.** And the GI50 (DU-145)?
**A.** > 100 µM (inactive)

**Q.** What about the GI50 (UO-31) of the same compound?
**A.** 48 µM (inactive)

**Q.** What about the GI50 (SNB-75) of the same compound?
**A.** > 100 µM (inactive)

**Q.** And the GI50 (OVCAR-4)?
**A.** > 100 µM (inactive)

**Q.** What about the GI50 (SF-295) of the same compound?
**A.** > 100 µM (inactive)

**Q.** And the GI50 (A498)?
**A.** 59.4 µM (inactive)

**Q.** What about the GI50 (HOP-92) of the same compound?
**A.** 16.9 µM (inactive)

**Q.** And the GI50 (SK-OV-3)?
**A.** > 100 µM (inactive)

**Q.** And the GI50 (SF-268)?
**A.** > 100 µM (inactive)

**Q.** And the GI50 (U-251)?
**A.** > 100 µM (inactive)

**Q.** And the GI50 (MOLT-4)?
**A.** > 100 µM (inactive)

**Q.** And the GI50 (Hs-578T)?
**A.** > 100 µM (inactive)

**Q.** What about the GI50 (K562) of the same compound?
**A.** > 100 µM (inactive)

**Q.** What about the GI50 (HOP-62) of the same compound?
**A.** > 100 µM (inactive)

**Q.** And the GI50 (MDA-MB-231)?
**A.** > 100 µM (inactive)

**Q.** What about the GI50 (OVCAR-8) of the same compound?
**A.** > 100 µM (inactive)

**Q.** And the GI50 (ACHN)?
**A.** > 100 µM (inactive)

**Q.** And the GI50 (M14)?
**A.** > 100 µM (inactive)

**Q.** And the GI50 (EKVX)?
**A.** > 100 µM (inactive)

**Q.** And the GI50 (MDA-MB-435)?
**A.** > 100 µM (inactive)

**Q.** And the GI50 (SK-MEL-5)?
**A.** > 100 µM (inactive)

**Q.** What about the GI50 (NCI/ADR-RES) of the same compound?
**A.** > 100 µM (inactive)

**Q.** What about the GI50 (NCI-H23) of the same compound?
**A.** > 100 µM (inactive)

**Q.** What about the GI50 (SW-620) of the same compound?
**A.** > 100 µM (inactive)

**Q.** What about the GI50 (CCRF-CEM) of the same compound?
**A.** > 100 µM (inactive)

**Q.** What about the GI50 (KM12) of the same compound?
**A.** > 100 µM (inactive)

**Q.** What about the GI50 (COLO 205) of the same compound?
**A.** > 100 µM (inactive)

**Q.** And the GI50 (A549)?
**A.** > 100 µM (inactive)

**Q.** And the GI50 (786-0)?
**A.** > 100 µM (inactive)

**Q.** And the GI50 (TK-10)?
**A.** > 100 µM (inactive)

**Q.** And the GI50 (SK-MEL-28)?
**A.** > 100 µM (inactive)

**Q.** And the GI50 (HT-29)?
**A.** > 100 µM (inactive)

**Q.** What about the GI50 (HL-60) of the same compound?
**A.** > 100 µM (inactive)

**Q.** And the GI50 (HCT-15)?
**A.** > 100 µM

**Q.** What about the GI50 (MCF7) of the same compound?
**A.** > 100 µM (inactive)

**Q.** And the GI50 (RPMI-8226)?
**A.** > 100 µM (inactive)
